Reference: ChEMBL document CHEMBL1909046, “DrugMatrix in vitro pharmacology data”

How the values were obtained:
[1] = target: T1, Alpha-1D adrenergic receptor (Homo sapiens, UniProt P25100); format: cell membranes, HEK293, Membrane; conditions: hek293; also: in other assays of this panel Not Active means under 50% inhibition at 10 µM
T1 sequence (P25100 whole entry): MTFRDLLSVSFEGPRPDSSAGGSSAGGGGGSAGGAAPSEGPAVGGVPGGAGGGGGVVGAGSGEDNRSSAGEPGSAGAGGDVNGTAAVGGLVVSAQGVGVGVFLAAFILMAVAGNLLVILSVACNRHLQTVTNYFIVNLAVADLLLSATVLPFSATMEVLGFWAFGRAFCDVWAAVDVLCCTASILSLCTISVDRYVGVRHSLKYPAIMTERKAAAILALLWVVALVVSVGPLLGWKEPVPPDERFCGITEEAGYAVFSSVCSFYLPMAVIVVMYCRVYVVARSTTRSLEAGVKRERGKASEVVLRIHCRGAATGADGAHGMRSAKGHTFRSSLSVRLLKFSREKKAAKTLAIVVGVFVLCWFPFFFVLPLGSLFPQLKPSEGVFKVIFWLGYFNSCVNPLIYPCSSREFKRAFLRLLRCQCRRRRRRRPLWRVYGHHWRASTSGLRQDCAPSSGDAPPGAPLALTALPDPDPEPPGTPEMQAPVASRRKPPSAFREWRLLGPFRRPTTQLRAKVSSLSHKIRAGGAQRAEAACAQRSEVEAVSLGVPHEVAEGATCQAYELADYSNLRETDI

[2] = target: Beta-1 adrenergic receptor (Homo sapiens, UniProt P08588); test: DRUGMATRIX: Adrenergic beta1 radioligand binding (ligand: [125I] Cyanopindolol); format: cell membranes, CHO-K1, Membrane; conditions: cho-k1; Not Active = under 50% inhibition at 10 µM
[3] = target: Beta-3 adrenergic receptor (Homo sapiens, UniProt P13945); test: DRUGMATRIX: Adrenergic beta3 radioligand binding (ligand: [125I] Cyanopindolol); format: cell membranes, HEK293, Membrane; conditions: hek293; Not Active = under 50% inhibition at 10 µM
[4] = target: Aldo-keto reductase family 1 member B1 (Rattus norvegicus, UniProt P07943); format: tissue-based, Lens of camera-type eye;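 also: inhibition of aldose reductase enzyme activity, measured with DL-glyceraldehyde as the substrate; in other assays of this panel Not Active means under 50% inhibition at 10 µM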
[5] = DRUGMATRIX: Calcium Channel Type L, Benzothiazepine radioligand binding (ligand: [3H] Diltiazem); format: cell membranes, Rattus norvegicus, Wistar, Brain, Membrane; conditions: Not Active = under 50% inhibition at 10 µM
[6] = DRUGMATRIX: Serotonin (5-Hydroxytryptamine) 5-HT3 radioligand binding (ligand: [3H] GR-65630); format: cell membranes, Membrane; conditions: hek293; Not Active = under 50% inhibition at 10 µM
[7] = target: 5-hydroxytryptamine receptor 4 (Cavia porcellus, UniProt O70528); format: cell membranes, Dunkin-Hartley, Striatum, Membrane; also: in other assays of this panel Not Active means under 50% inhibition at 10 µM
[8] = target: Sigma non-opioid intracellular receptor 1 (Homo sapiens, UniProt Q99720); test: DRUGMATRIX: Sigma1 radioligand binding (ligand: [3H] Haloperidol); format: cell membranes, Jurkat, Membrane; conditions: jurkat; Not Active = under 50% inhibition at 10 µM
[9] = DRUGMATRIX: Tumor Necrosis Factor (TNF), Non-Selective radioligand binding (ligand: [125I] TNF-alpha); format: cell membranes, Membrane; conditions: u-937; Not Active = under 50% inhibition at 10 µM
[10] = DRUGMATRIX: Calcium Channel Type L, Phenylalkylamine radioligand binding (ligand: [3H] (-)-Desmethoxyverapamil (D-888)); format: cell membranes, Rattus norvegicus, Wistar, Brain, Membrane; conditions: Not Active = under 50% inhibition at 10 µM
[11] = target: T2, Cholecystokinin receptor type A (Homo sapiens, UniProt P32238); format: cell membranes, Membrane; conditions: 1321-n1; also: in other assays of this panel Not Active means under 50% inhibition at 10 µM
T2 sequence (P32238 whole entry): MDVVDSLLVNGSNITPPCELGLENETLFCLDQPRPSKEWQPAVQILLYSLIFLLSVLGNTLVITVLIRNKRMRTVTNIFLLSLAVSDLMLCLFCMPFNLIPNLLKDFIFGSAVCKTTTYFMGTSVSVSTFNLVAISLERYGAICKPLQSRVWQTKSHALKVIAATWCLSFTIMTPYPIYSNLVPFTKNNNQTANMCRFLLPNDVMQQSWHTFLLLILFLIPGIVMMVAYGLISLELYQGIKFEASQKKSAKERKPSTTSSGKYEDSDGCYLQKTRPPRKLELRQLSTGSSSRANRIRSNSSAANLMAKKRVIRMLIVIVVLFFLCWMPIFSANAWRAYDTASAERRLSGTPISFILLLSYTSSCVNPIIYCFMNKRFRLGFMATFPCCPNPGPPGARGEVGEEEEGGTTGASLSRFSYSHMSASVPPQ

[12] = DRUGMATRIX: GABAA, Muscimol, Central radioligand binding (ligand: [3H] Muscimol); format: cell membranes, Rattus norvegicus, Wistar, Brain, Membrane; conditions: Not Active = under 50% inhibition at 10 µM
[13] = DRUGMATRIX: GABAA, Flunitrazepam, Central radioligand binding (ligand: [3H] Flunitrazepam); format: cell membranes, Rattus norvegicus, Wistar, Brain, Membrane; conditions: Not Active = under 50% inhibition at 10 µM
[14] = DRUGMATRIX: Imidazoline I2, Central radioligand binding (ligand: [3H] Idazoxan); format: cell membranes, Rattus norvegicus, Wistar, Cerebral cortex, Membrane; conditions: Not Active = under 50% inhibition at 10 µM
Insulin receptor = Insulin receptor (Rattus norvegicus, UniProt P15127); format: cell membranes, Wistar, Liver, Membrane; also: in other assays of this panel Not Active means under 50% inhibition at 10 µM
Melanocortin receptor 4 = Melanocortin receptor 4 (Homo sapiens, UniProt P32245); format: cell membranes, Membrane; conditions: hek293; also: in other assays of this panel Not Active means under 50% inhibition at 10 µM
[15] = target: Kappa-type opioid receptor (Homo sapiens, UniProt P41145); test: DRUGMATRIX: Opiate kappa (OP2, KOP) radioligand binding (ligand: [3H] Diprenorphine); format: cell membranes, HEK293, Membrane; conditions: hek293; Not Active = under 50% inhibition at 10 µM
Mu-type opioid receptor = Mu-type opioid receptor (Homo sapiens, UniProt P35372); test: DRUGMATRIX: Opiate mu (OP3, MOP) radioligand binding (ligand: [3H] Diprenorphine); format: cell membranes, CHO-K1, Membrane; conditions: cho-k1; Not Active = under 50% inhibition at 10 µM
[16] = target: T3, 5-hydroxytryptamine receptor 1A (Rattus norvegicus, UniProt P19327); format: cell membranes, CHO-K1, Membrane; conditions: cho-k1; also: in other assays of this panel Not Active means under 50% inhibition at 10 µM
T3 sequence (P19327 whole entry): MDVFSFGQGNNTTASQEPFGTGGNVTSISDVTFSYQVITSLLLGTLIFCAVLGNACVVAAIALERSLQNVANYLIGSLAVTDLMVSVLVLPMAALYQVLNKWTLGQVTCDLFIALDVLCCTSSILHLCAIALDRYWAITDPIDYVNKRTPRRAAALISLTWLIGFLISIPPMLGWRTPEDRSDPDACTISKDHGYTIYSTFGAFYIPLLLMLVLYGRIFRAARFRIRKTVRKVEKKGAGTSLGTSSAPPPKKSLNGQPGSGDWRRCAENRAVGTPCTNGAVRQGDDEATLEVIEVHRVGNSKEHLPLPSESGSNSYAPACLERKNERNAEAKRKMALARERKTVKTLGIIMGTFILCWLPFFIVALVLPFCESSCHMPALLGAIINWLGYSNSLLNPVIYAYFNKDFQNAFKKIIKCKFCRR

[17] = target: 5-hydroxytryptamine receptor 1B (Rattus norvegicus, UniProt P28564); format: cell membranes, Wistar, Cerebral cortex, Membrane; also: in other assays of this panel Not Active means under 50% inhibition at 10 µM
5-hydroxytryptamine receptor 1B, sequence (P28564 whole entry): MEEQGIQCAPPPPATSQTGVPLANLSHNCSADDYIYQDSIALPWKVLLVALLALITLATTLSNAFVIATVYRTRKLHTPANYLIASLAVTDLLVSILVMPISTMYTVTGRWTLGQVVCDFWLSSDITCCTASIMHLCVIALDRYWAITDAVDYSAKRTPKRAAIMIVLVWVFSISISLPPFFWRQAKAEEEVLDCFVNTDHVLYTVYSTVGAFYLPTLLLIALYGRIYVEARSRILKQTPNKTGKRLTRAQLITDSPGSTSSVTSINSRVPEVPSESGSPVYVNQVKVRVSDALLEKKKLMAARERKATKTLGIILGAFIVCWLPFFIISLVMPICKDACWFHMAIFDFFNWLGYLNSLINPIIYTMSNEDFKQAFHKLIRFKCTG

Kappa-type opioid receptor, sequence (P41145 whole entry): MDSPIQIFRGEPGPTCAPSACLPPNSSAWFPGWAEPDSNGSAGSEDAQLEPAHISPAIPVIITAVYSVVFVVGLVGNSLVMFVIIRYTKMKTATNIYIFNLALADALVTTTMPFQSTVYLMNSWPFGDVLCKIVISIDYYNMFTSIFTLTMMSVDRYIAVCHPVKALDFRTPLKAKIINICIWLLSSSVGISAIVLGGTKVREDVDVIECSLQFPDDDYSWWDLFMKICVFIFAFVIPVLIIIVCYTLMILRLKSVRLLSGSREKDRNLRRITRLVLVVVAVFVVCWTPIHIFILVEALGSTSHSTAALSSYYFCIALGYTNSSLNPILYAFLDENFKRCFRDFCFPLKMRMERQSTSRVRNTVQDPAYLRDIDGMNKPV
Sigma non-opioid intracellular receptor 1, sequence (Q99720 whole entry): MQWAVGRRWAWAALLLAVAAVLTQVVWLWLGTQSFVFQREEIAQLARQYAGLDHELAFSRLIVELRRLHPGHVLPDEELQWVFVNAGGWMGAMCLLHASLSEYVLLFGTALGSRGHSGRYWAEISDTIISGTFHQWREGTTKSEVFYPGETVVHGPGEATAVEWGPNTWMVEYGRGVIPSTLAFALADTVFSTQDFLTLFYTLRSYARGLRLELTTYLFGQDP
Melanocortin receptor 4, sequence (P32245 whole entry): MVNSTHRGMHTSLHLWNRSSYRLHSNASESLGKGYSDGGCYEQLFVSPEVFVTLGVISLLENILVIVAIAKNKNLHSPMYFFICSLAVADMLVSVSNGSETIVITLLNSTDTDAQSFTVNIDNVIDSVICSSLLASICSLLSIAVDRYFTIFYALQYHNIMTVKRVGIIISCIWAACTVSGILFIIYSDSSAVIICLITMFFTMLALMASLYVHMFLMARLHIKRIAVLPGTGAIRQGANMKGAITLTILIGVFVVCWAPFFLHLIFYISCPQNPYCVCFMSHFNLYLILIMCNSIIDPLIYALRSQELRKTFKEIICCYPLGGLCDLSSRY
Beta-1 adrenergic receptor, sequence (P08588 whole entry): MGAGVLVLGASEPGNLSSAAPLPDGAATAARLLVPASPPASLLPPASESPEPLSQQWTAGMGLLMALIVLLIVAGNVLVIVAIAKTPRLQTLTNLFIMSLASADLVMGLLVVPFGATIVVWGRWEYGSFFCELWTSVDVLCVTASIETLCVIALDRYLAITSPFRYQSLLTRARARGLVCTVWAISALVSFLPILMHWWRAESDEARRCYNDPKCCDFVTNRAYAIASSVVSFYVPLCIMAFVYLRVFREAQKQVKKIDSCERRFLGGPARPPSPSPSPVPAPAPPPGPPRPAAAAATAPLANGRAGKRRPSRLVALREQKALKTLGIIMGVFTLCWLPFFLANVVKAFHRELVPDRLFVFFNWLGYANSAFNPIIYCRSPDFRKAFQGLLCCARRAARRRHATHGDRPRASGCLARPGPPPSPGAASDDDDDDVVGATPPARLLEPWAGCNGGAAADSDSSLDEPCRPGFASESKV
Insulin receptor, sequence (P15127 27-759 limits assumed): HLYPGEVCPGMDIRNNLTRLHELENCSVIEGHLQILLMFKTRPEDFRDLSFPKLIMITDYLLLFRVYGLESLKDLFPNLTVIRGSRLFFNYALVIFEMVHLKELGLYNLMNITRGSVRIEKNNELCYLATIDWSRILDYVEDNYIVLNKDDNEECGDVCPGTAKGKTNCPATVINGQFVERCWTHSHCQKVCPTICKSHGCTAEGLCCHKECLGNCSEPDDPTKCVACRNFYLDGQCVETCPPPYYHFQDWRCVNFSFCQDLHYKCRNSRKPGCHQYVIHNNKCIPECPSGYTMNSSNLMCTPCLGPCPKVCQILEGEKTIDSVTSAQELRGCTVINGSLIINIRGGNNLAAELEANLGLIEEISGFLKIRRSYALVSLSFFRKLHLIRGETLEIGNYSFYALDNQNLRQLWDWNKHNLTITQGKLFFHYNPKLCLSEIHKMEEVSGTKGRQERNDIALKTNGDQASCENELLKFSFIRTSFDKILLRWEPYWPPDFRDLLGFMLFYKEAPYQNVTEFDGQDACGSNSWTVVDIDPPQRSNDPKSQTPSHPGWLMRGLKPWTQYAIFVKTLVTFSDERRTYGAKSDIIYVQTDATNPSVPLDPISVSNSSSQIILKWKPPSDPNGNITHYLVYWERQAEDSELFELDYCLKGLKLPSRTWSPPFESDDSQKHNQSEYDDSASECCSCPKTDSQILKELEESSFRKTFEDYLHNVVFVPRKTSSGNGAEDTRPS
Insulin receptor, sequence (P15127 764-1383 limits assumed): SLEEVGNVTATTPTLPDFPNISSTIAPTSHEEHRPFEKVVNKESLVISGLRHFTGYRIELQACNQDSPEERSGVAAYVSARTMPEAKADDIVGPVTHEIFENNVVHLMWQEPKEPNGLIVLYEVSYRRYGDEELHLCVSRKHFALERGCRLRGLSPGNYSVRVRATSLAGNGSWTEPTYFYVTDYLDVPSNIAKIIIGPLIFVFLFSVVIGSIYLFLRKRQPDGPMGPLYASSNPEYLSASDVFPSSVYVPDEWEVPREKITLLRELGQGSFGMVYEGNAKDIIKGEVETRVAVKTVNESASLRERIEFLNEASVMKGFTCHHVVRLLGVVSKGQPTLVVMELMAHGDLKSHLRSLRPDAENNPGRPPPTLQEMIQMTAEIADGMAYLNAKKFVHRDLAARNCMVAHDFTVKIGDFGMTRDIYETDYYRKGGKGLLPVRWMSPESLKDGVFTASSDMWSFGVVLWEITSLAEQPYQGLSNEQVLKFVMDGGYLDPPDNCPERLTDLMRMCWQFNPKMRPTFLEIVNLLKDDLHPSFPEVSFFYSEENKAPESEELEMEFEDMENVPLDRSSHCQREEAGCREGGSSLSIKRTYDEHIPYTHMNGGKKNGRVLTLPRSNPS
Beta-3 adrenergic receptor, sequence (P13945 whole entry): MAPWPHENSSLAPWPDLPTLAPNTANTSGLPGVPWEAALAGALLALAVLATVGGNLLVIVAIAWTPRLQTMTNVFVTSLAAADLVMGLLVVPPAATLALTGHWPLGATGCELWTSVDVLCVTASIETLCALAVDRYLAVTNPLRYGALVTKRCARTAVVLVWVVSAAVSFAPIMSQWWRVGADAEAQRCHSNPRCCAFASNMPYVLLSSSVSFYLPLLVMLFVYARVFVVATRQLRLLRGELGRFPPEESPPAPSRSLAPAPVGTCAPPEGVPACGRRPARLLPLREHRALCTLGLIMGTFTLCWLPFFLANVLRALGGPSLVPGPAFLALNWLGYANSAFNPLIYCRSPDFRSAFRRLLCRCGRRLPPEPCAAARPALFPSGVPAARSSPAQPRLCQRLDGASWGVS
Mu-type opioid receptor, sequence (P35372 whole entry): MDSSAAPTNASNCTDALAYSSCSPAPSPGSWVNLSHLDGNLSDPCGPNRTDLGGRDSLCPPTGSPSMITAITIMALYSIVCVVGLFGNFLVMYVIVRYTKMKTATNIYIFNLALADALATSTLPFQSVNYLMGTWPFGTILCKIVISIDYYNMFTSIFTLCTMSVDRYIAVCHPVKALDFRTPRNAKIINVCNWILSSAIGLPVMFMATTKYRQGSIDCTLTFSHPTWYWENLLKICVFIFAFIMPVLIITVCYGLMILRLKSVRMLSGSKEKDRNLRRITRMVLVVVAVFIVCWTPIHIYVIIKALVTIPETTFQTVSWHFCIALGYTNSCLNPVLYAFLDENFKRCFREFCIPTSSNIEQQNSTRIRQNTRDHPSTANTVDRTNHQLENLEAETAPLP
5-hydroxytryptamine receptor 4, sequence (O70528 whole entry): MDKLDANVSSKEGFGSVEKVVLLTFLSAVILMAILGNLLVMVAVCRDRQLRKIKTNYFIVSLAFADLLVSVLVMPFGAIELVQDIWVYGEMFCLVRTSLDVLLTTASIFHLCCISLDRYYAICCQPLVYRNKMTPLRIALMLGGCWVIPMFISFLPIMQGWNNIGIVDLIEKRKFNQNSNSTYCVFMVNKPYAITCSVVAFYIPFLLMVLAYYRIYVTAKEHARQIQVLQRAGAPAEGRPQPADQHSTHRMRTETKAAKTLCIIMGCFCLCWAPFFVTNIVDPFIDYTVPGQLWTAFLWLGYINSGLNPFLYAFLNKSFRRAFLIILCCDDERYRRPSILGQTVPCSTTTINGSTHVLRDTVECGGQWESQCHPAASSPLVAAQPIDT

COC(=O)c1ccc(O)cc1 [METHYLPARABEN]
Not Active: IC50 [1] | IC50 [2] | IC50 [3] | IC50 [4] | IC50 [5] | Ki [5] | IC50 [6] | Ki [6] | IC50 [7] | IC50 [8] | IC50 [9] | Ki [9] | IC50 [10] | Ki [10] | IC50 [11] | IC50 [12] | Ki [12] | IC50 [13] | Ki [13] | IC50 [14] | Ki [14] | IC50 (Insulin receptor) | IC50 (Melanocortin receptor 4) | IC50 [15] | IC50 (Mu-type opioid receptor) | IC50 [16] | IC50 [17]

COS(C)(=O)=O [METHANESULFONIC ACID METHYL ESTER]
Not Active: IC50 [1] | IC50 [2] | IC50 [3] | IC50 [4] | IC50 [5] | Ki [5] | IC50 [6] | Ki [6] | IC50 [7] | IC50 [8] | IC50 [9] | Ki [9] | IC50 [10] | Ki [10] | IC50 [11] | IC50 [12] | Ki [12] | IC50 [13] | Ki [13] | IC50 [14] | Ki [14] | IC50 (Insulin receptor) | IC50 (Melanocortin receptor 4) | IC50 [15] | IC50 (Mu-type opioid receptor) | IC50 [16] | IC50 [17]

CC1=C(/C=C/C(C)=C/C=C/C(C)=C\C(=O)O)C(C)(C)CCC1 [ISOTRETINOIN]
Not Active: IC50 [1] | Ki [2] | IC50 [3] | IC50 [4] | IC50 [5] | Ki [5] | IC50 [6] | Ki [6] | IC50 [7] | IC50 [8] | IC50 [9] | Ki [9] | IC50 [10] | Ki [10] | IC50 [11] | IC50 [12] | Ki [12] | IC50 [13] | Ki [13] | IC50 [14] | Ki [14] | IC50 (Insulin receptor) | IC50 (Melanocortin receptor 4) | IC50 [15] | IC50 (Mu-type opioid receptor) | IC50 [16] | IC50 [17]

CO[C@@H]1[C@@H](O[C@@H]2O[C@H](C)[C@@H](O[C@H]3C[C@@](C)(O)[C@@H](OC(=O)CC(C)C)[C@H](C)O3)[C@H](N(C)C)[C@H]2O)[C@@H](CC=O)C[C@@H](C)[C@@H](O)/C=C/C=C/C[C@@H](C)OC(=O)C[C@H]1O [KITASAMYCIN]
Not Active: IC50 [1] | IC50 [2] | IC50 [3] | IC50 [4] | IC50 [5] | Ki [5] | IC50 [6] | Ki [6] | IC50 [7] | IC50 [8] | IC50 [9] | Ki [9] | IC50 [10] | Ki [10] | IC50 [11] | IC50 [12] | Ki [12] | IC50 [13] | Ki [13] | IC50 [14] | Ki [14] | IC50 (Insulin receptor) | IC50 (Melanocortin receptor 4) | IC50 [15] | IC50 (Mu-type opioid receptor) | IC50 [16] | IC50 [17]

C[C@]12Cc3c[nH]nc3C[C@@H]1CC[C@@H]1[C@@H]2CC[C@@]2(C)[C@H]1CC[C@]2(C)O [STANOZOLOL]
Not Active: IC50 [1] | IC50 [2] | IC50 [3] | IC50 [4] | IC50 [5] | Ki [5] | IC50 [6] | Ki [6] | IC50 [7] | IC50 [8] | IC50 [9] | Ki [9] | IC50 [10] | Ki [10] | IC50 [11] | IC50 [12] | Ki [12] | IC50 [13] | Ki [13] | IC50 [14] | Ki [14] | IC50 (Insulin receptor) | IC50 (Melanocortin receptor 4) | IC50 [15] | IC50 (Mu-type opioid receptor) | IC50 [16] | IC50 [17]

CCOC(=O)[C@H](CCc1ccccc1)N[C@@H](C)C(=O)N1[C@H](C(=O)O)C[C@@H]2CCC[C@@H]21
Not Active: IC50 [1] | IC50 [2] | IC50 [3] | IC50 [4] | IC50 [5] | Ki [5] | IC50 [6] | Ki [6] | IC50 [7] | IC50 [8] | IC50 [9] | Ki [9] | IC50 [10] | Ki [10] | IC50 [11] | IC50 [12] | Ki [12] | IC50 [13] | Ki [13] | IC50 [14] | Ki [14] | IC50 (Insulin receptor) | IC50 (Melanocortin receptor 4) | IC50 [15] | IC50 (Mu-type opioid receptor) | IC50 [16] | IC50 [17]
